The values below come from patent US20080193411A1, “Anti-viral Compounds” (Genelabs Technologies, Inc., priority 2006, published 2008).

A word on the inhibition: it is the drop in the measured response relative to a control, in per cent. Low values mean little suppression, high ones strong suppression.

Each structure is given as a SMILES string.

The test concerns HCV replication. Description: HCV replicon assay (luciferase), ET (Huh-lucubineo-ET) cell line. The format is cell-based. The settings on record: Hepatitis C virus; tested at 10 μM; ET (Huh-lucubineo-ET) replicon cells; luciferase activity 48-72 hours; relative to no compound control. The procedure:
A cell line, ET (Huh-lucubineo-ET) was used for screening of compounds of the present invention for inhibiting HCV replication. The ET cell line was stably transfected with RNA transcripts harboring a I389luc-ubi-neo/NS3-3′/ET; replicon with firefly luciferase-ubiquitin-neomycin phosphotransferase fusion protein and EMCV-IRES driven NS3-5B polyprotein containing the cell culture adaptive mutations (E1202G; T1280I; K1846T) (Krieger at al, 2001 and unpublished). The ET cells were grown in DMEM (Dulbeco's Modified Eagle's Medium), supplemented with 10% fetal calf serum, 2 mM Glutamine, Penicillin (100 IU/mL)/Streptomycin (100 μg/mL), 1× nonessential amino acids, and 250 μg/mL G418 (“Geneticin”). They were all available through Life Technologies (Bethesda, Md.). The cells were plated at 0.5-1.0×10^4 cells/well in the 96 well plates and incubated for 24 hrs before adding testing compounds. Then the compounds were added to the cells to achieve a final concentration of 0.1 nM to 50 μM and a final DMSO concentration of 0.5%. Luciferase activity were measured 48-72 hours later by adding a lysis buffer and the substrate (Catalog number Glo-lysis buffer E2661 and Bright-Glo luciferase system E2620 Promega, Madison, Wis.). Cells should not be too confluent during the assay. Percent inhibition of replication was plotted relative to no compound control. Under the same condition, cytotoxicity of the compounds was determined using cell proliferation reagent, WST-1 (Roche, Germany). The compounds showing antiviral activities, but no significant cytotoxicities were chosen to determine EC50 and TC50. For these determinations, a 10 point 2-fold serial dilution for each compound was used, which spans a concentration range of 1000 fold. EC50 and similarly TC50 values were calculated by fitting % inhibition at each concentration to the following equation:
% inhibition=100%/[(IC50/[I])^b+1]
where b is Hill's coefficient.
In some preferred embodiments compounds of Formula I will have a % inhibition of at least 20% when tested at 10 μM. In other embodiments the compounds of Formula I will have a % inhibition of at least 50% when tested at 10 μM.
(In general: Replicon systems follow genome replication, usually without infectious particles.)
`O=C(Cc1ccc(-c2ccc([C@@H]3CCCN3C(=O)OCc3ccccc3)cc2)cc1)NC1CC1` (stereo in doubt) [Compound 4002, 2-(4′-Cyclopropylcarbamoylmethyl-biphenyl-4-yl)-pyrrolidine-1-carboxylic acid benzyl ester] registered an inhibition at 10 µM of 33.3%.
In the case of `O=C(Cc1cccc(-c2ccc([C@@H]3CCCN3C(=O)OCc3ccccc3)cc2)c1)NC1CC1` (stereo in doubt) [Compound 4043, 2-(3′-Cyclopropylcarbamoylmethyl-biphenyl-4-yl)-pyrrolidine-1-carboxylic acid benzyl ester], at 10 µM the inhibition was 40%.
The molecule `O=C(NC1CC1)c1ccc(-c2ccc([C@@H]3CCCN3C(=O)OCc3ccccc3)cc2)cc1` (stereo in doubt) [Compound 4044, 2-(4′-Cyclopropylcarbamoyl-biphenyl-4-yl)-pyrrolidine-1-carboxylic acid benzyl ester] registered an inhibition at 10 µM of 53.1%.
Then `O=C(NC1CC1)c1cccc(-c2ccc3nc([C@@H]4CCCN4C(=O)OCc4ccccc4)[nH]c3c2)c1` [Compound 4001, (S)-2-[6-(3-Cyclopropylcarbamoyl-phenyl)-1H-benzoimidazol-2-yl]-pyrrolidine-1-carboxylic acid benzyl ester], with 94.5%; and `O=C(Cc1cccc(-c2ccc3nc([C@@H]4CCCN4C(=O)OCc4ccccc4)[nH]c3c2)c1)NC1CC1` [Compound 4003, (S)-2-[6-(3-Cyclopropylcarbamoylmethyl-phenyl)-1H-benzoimidazol-2-yl]-pyrrolidine-1-carboxylic acid benzyl ester], with 97%; and `O=C(Nc1ccc(-c2cccc(C#C[C@@H]3CCCN3C(=O)OCc3ccccc3)c2)cc1)C1CC1` [Compound 4004, (S)-2-[4′-(Cyclopropanecarbonyl-amino)-biphenyl-3-ylethynyl]-pyrrolidine-1-carboxylic acid benzyl ester], with 81.8%.
`O=C(OCc1ccccc1)N1CCC[C@H]1c1nc2ccc(-c3ccc4[nH]ccc4c3)cc2s1` [Compound 4005, (S)-2-[6-(1H-Indol-5-yl)-benzothiazol-2-yl]-pyrrolidine-1-carboxylic acid benzyl ester]: the inhibition at 10 µM stood at 1.7%.
Then `O=C(OCc1ccccc1)N1CCC[C@H]1c1nc2ccc(-c3ccccc3)cc2[nH]1` [Compound 4007, (S)-2-(6-Phenyl-1H-benzoimidazol-2-yl)-pyrrolidine-1-carboxylic acid benzyl ester], with 4.4%; and `Nc1ccc(-c2ccc3nc([C@@H]4CCCN4C(=O)OCc4ccccc4)[nH]c3c2)cc1` [Compound 4008, (S)-2-[6-(4-Amino-phenyl)-1H-benzoimidazol-2-yl]-pyrrolidine-1-carboxylic acid benzyl ester], with 13.6%.
As for `O=C(OCc1ccccc1)N1CCC[C@H]1c1nc2ccc(-c3ccc4ccccc4c3)cc2[nH]1` [Compound 4011, (S)-2-(6-Naphthalen-2-yl-1H-benzoimidazol-2-yl)-pyrrolidine-1-carboxylic acid benzyl ester], the inhibition at 10 µM was 87%.
As for `O=C(OCc1ccccc1)N1CCC[C@H]1c1nc2ccc(-c3cccc4cc[nH]c34)cc2[nH]1` [Compound 4014, (S)-2-[6-(1H-Indol-7-yl)-1H-benzoimidazol-2-yl]-pyrrolidine-1-carboxylic acid benzyl ester], the figure is 12.7%; as for `COc1ccc(-c2ccc3nc([C@@H]4CCCN4C(=O)OCc4ccccc4)[nH]c3c2)c(OC)c1` [Compound 4017, (S)-2-[6-(2,4-Dimethoxy-phenyl)-1H-benzoimidazol-2-yl]-pyrrolidine-1-carboxylic acid benzyl ester], 42.4%.
Then `O=C(NC1CC1)c1ccc(-c2ccc3nc([C@@H]4CCCN4C(=O)OCc4ccccc4)oc3c2)cc1` [Compound 4019, (S)-2-[6-(4-Cyclopropylcarbamoyl-phenyl)-benzooxazol-2-yl]-pyrrolidine-1-carboxylic acid benzyl ester], with 50.5%; and `O=C(NC1CC1)c1ccc(-c2ccc3nc([C@@H]4CCCN4C(=O)OCc4ccccc4)[nH]c3c2)cc1` [Compound 4020, (S)-2-[6-(4-Cyclopropylcarbamoyl-phenyl)-1H-benzoimidazol-2-yl]-pyrrolidine-1-carboxylic acid benzyl ester], with 96.1%; and `O=C(Cc1ccc(-c2ccc3nc([C@@H]4CCCN4C(=O)OCc4ccccc4)[nH]c3c2)cc1)NC1CC1` [Compound 4021, (S)-2-[6-(4-Cyclopropylcarbamoylmethyl-phenyl)-1H-benzoimidazol-2-yl]-pyrrolidine-1-carboxylic acid benzyl ester], with 64.5%.
Then `O=C(NC1CC1)c1ccc(-c2ccc3nc([C@@H]4CCCN4C(=O)OCc4ccccc4)sc3c2)cc1` [Compound 4022, 2-[6-(4-Cyclopropylcarbamoyl-phenyl)-benzothiazol-2-yl]-pyrrolidine-1-carboxylic acid benzylester], with 14.9%; and `O=C(Cc1ccc(-c2cccc(C#C[C@@H]3CCCN3C(=O)OCc3ccccc3)c2)cc1)NC1CC1` [Compound 4024, 2-(4′-Cyclopropylcarbamoyl-methyl-biphenyl-3-ylethynyl)-pyrrolidine-1-carboxylic acid benzylester], with 45.9%; and `O=C(OCc1ccccc1)N1CCC[C@H]1c1nc2ccc(-c3cccs3)cc2[nH]1` [Compound 4029, (S)-2-(6-Thiophen-2-yl-1H-benzoimidazol-2-yl)-pyrrolidine-1-carboxylic acid benzyl ester], with 78.1%.
With `O=C(OCc1ccccc1)N1CCC[C@H]1c1nc2ccc(-c3ccco3)cc2[nH]1` [Compound 4030, (S)-2-(6-Furan-2-yl-1H-benzoimidazol-2-yl)-pyrrolidine-1-carboxylic acid benzyl ester], the inhibition at 10 µM amounted to 66.8%.
For the molecule `O=C(OCc1ccccc1)N1CCC[C@H]1c1nc2ccc(-c3ccc4c(c3)OCO4)cc2[nH]1` [Compound 4032, (S)-2-(6-Benzo[1,3]dioxol-5-yl-1H-benzoimidazol-2-yl)-pyrrolidine-1-carboxylic acid benzyl ester], testing at 10 µM gave an inhibition of 25.8%.
As for `O=C(OCc1ccccc1)N1CCC[C@H]1c1nc2ccc(-c3cc([N+](=O)[O-])c4[nH]ccc4c3)cc2[nH]1` [Compound 4033, (S)-2-[6-(7-Nitro-1H-indol-5-yl)-1H-benzoimidazol-2-yl]-pyrrolidine-1-carboxylic acid benzyl ester], the figure is 97.5%.
Then `NC(=O)Nc1ccc(-c2ccc3nc([C@@H]4CCCN4C(=O)OCc4ccccc4)[nH]c3c2)cc1` [Compound 4034, (S)-2-[6-(4-Ureido-phenyl)-1H-benzoimidazol-2-yl]-pyrrolidine-1-carboxylic acid benzyl ester], with 24.1%; and `O=C(OCc1ccccc1)N1CCC[C@H]1c1nc2ccc(-c3ccc4[nH]ccc4c3)cc2[nH]1` [Compound 4035, (S)-2-[6-(1H-Indol-5-yl)-1H-benzoimidazol-2-yl]-pyrrolidine-1-carboxylic acid benzyl ester], with 99.9%; and `O=C(Nc1cccc(-c2ccc3nc([C@@H]4CCCN4C(=O)OCc4ccccc4)[nH]c3c2)c1)C1CC1` [Compound 4037, (S)-2-{6-[3-(Cyclopropanecarbonyl-amino)-phenyl]-1H-benzoimidazol-2-yl}-pyrrolidine-1-carboxylic acid benzyl ester], with 97.6%.
Then `O=C(OCc1ccccc1)N1CCC[C@H]1c1nc2ccc(-c3ccc4[nH]ccc4c3)cc2o1` [Compound 4039, (S)-2-[6-(1H-Indol-5-yl)-benzooxazol-2-yl]-pyrrolidine-1-carboxylic acid benzyl ester], with 49.6%.
As for `O=C(NCc1ccc(-c2cccc(C#C[C@@H]3CCCN3C(=O)OCc3ccccc3)c2)cc1)C1CC1` [Compound 4041, (S)-2-{4′-[(Cyclopropanecarbonyl-amino)-methyl]-biphenyl-3-ylethynyl}-pyrrolidine-1-carboxylic acid benzyl ester], the inhibition at 10 µM was 45.8%.
As for `CC(=O)c1cccc(-c2ccc3nc([C@@H]4CCCN4C(=O)OCc4ccccc4)[nH]c3c2)c1` [Compound 4045, (S)-2-[6-(3-Acetyl-phenyl)-1H-benzoimidazol-2-yl]-pyrrolidine-1-carboxylic acid benzyl ester], the figure is 99.8%; as for `O=C(OCc1ccccc1)N1CCC[C@H]1c1nc2ccc(-c3ccc4[nH]c5ccccc5c4c3)cc2[nH]1` [Compound 4047, (S)-2-[6-(9H-Carbazol-3-yl)-1H-benzoimidazol-2-yl]-pyrrolidine-1-carboxylic acid benzyl ester], 98.2%.
